Results published in US20060052326A1, “Werner's syndrome helicase as a target for anti -HIV/AIDS therapy” (priority 2004, published 2006).

B1: TatK28A/K50A (protein)
chain: MEPVDPRLEPWKHPGSQPKTACTNCYCAKCCFHCQVCFITKALGISYGRAKRRQRRRAHQNSQTHQASLSKQPTSQPRGDPTGPKE

Assays:
Format in all cases: cell-based
[1] = tested on: HIV-1 LTR; assay: HIV-1 LTR-luciferase reporter assay in co-transfected HeLa cells; conditions: for effect on basal HIV-1 LTR transcriptional activity (in words): absence of Tat
Method: To determine whether the WRN or BLM helicases influence HIV-1 transcriptional activity and viral replication, HeLa cells were co-transfected with an HIV-1 LTR-luciferase reporter plasmid (0.5 μg), RSV-HIV-1 Tat (0.5 μg), and increasing amounts of CMV-WRN or CMV-BLM expression constructs (0.25, 0.5, 1.0 μg). Following transfection, the cells were lysed by repeated freeze-thawing and luciferase assays were performed using equivalent amounts of total cellular proteins.
Next, an assay was performed to determine whether WRN-associated helicase activity is required for WRN-mediated trans-activation from the HIV-1 LTR. HeLa cells were co-transfected as in A with the HIV-1 LTR-luciferase reporter plasmid (0.5 μg), RSV-HIV-1 Tat (0.5 μg), or increasing amounts of CMV-WRN and CMV-WRNK577M (a trans-dominant negative helicase-defective mutant) (0.25, 0.5, 1.0 μg) in the absence of HIV-1 Tat expression. Results shown in FIG. 3B are averages from duplicate assays and error bars representing standard deviations between samples are provided.

[2] = tested on: HIV-1 LTR^ΔκB; assay: HIV-1 LTR^ΔκB-luciferase mutant reporter assay in co-transfected HeLa cells; conditions: for transcription from the HIV-1 LTR^ΔκB-luciferase construct (in words): absence of Tat
Method: To determine whether the TAR-RNA stem-loop secondary structure is sufficient to support WRN-mediated LTR trans-activation, HeLa cells were co-transfected with an HIV-1 LTR^ΔκB luciferase mutant reporter construct, lacking upstream NF-κB-responsive enhancer sequences (transcription from this construct is principally regulated at the level of elongation by TAR-RNA), RSV-HIV-1 Tat, or increasing amounts of CMV-WRN or CMV-WRNK577M (0.25, 0.5, 1.0 μg). Luciferase assays were performed as described using equivalent amounts of total cellular proteins.
The next experiment was undertaken to determine whether interactions with the Tat protein influence WRN's ability to trans-activate the HIV-1 LTR. […] All experiments were performed in duplicate or triplicate and error bars representative of standard deviations are shown in FIG. 4C.

[3] = tested on: HIV-1 LTR^ΔNFκB/ΔTAR; assay: HIV-1 LTR^ΔNFκB/ΔTAR-luciferase double-mutant reporter assay in HeLa cells
Source text: HeLa cells were co-transfected as in A with a double-mutant, HIV-1 LTR^ΔNFκB/ΔTAR-luciferase reporter plasmid, deleted for κB-responsive elements and TAR-RNA sequences, RSV-HIV-1 Tat, CMV-WRN, or CMV-BLM.

[4] = tested on: HIV-1 LTR; assay: HIV-1 LTR-luciferase reporter assay in Jurkat E6.1 T-cells; conditions: Jurkat E6.1 lymphocytes
Method: To determine the influence of the WRN helicase upon HIV-1 LTR transcriptional activation in CD4^+ lymphocytes, Jurkat E6.1 T-cells were co-transfected with HIV-1 LTR-luciferase (0.5 μg), RSV-HIV-1 Tat (0.5 μg), and increasing amounts of CMV-WRN or CMV-WRNK577M, which expresses a trans-dominant negative helicase-defective mutant (0.25, 0.5, 1.0 μg). Following transfection, the cells were lysed by repeated freeze-thawing and luciferase assays were performed, in duplicate, using equivalent amounts of total cellular proteins.

[5] = tested on: HIV-1 LTR; assay: HIV-1 LTR-luciferase / tk-renilla normalized reporter assay in HeLa cells; conditions: for Tat-activated HIV-1 LTR luciferase activity with or without WRNK577M: highest concentration of WRNK577M versus Tat alone
Method: (§1) Therefore, we co-transfected immortalized WRN^-I- fibroblasts with a tk-renilla luciferase reporter plasmid (which produces red luminescence as a result of renilla luciferase expression driven by the Herpes Simplex Virus thymidine kinase (tk) minimal gene promoter)(0.5 μg) and an HIV-1 LTR-luciferase reporter construct (which produces green luminescence as a result of firefly luciferase expression driven by the HIV-1 LTR) (0.5 μg), and increasing amounts of RSV-HIV-1 Tat or RSV-HIV-1 TatK28A/K50A (0.15, 0.25, 0.5 μg) in the absence or presence of the trans-dominant negative CMV-WRNK577M mutant (0.5, 1.0 μg). The CMV-WRNK577M trans-dominant-negative helicase-defective mutant was co-expressed in certain experiments to inhibit Tat-activated HIV-1 LTR transcription and endogenous WRN functions in HeLa cells (Bai Y et al., Hum. Genet. 113:337-347). Samples were normalized to yield approximately equivalent renilla-luciferase expression to control for transfection efficiencies and any differences in overall transcription levels between WRN^-I- fibroblasts and HeLa cells. Normalized extracts were then compared to determine basal-level and Tat-activated HIV-1 LTR-luciferase transcription.

[6] = tested on: HIV-1 LTR; assay: HIV-1 LTR-luciferase / tk-renilla normalized reporter assay in immortalized WRN^-I- fibroblasts; conditions: highest concentration of RSV-HIV-1 Tat
Method: In order to determine whether the WRN helicase is an essential cofactor for HIV-1 transcription and virus replication, basal and Tat-activated LTR-driven transcription were measured in WRN^-I-fibroblasts. These fibroblasts were obtained from Werner's syndrome patients and lack a functional WRN helicase protein (Moser M J et al., Nucleic Acids Res. 28:648-654).
as §1, with “Samples were normalized to yield approximately equivalent renilla-luciferase expression to control for transfection efficiencies and any differences in overall transcription levels between WRN^-I- fibroblasts and HeLa cells. Normalized extracts were then compared to determine basal-level and Tat-activated HIV-1 LTR-luciferase transcription.” left out

[7] = tested on: HIV-1IIIB-infected H9 lymphocytes; assay: Intracellular p24^Gag immunoblotting in transfected HIV-1IIIB-infected H9 lymphocytes; conditions: PHA (10 ng/ml) and hIL-2 (50 U/ml) stimulated, over-expression
Method: The influence of over-expressing wild-type WRN, or trans-dominant-negative WRNK577M, proteins upon HIV-1 replication and the production of intracellular viral structural components was tested in HIV-infected H9 lymphocytes that were stimulated with PHA (10 ng/ml) and human IL-2 (50 U/ml) . HIV-1IIIB-infected H9 lymphocytes were transfected with increasing amounts of CMV-WRN, CMV-WRNK577M, or CMV-green fluorescent protein (GFP) negative control (1.0, 3.0 μg) and then stimulated with PHA (10 ng/ml) and hIL-2 (50 U/ml) to induce HIV-1 replication. The HIV-1 p24^Gag major capsid and cellular actin proteins were detected by immuno-blotting using appropriate primary antibodies. Protein expression was quantified using a densitometer and is represented graphically below immunoblotting results shown in FIG. 7A.

[8] = tested on: H9HIV-1IIIB lymphocytes; assay: Immunofluorescence-microscopy of p24^Gag in transfected HIV-1-infected H9 lymphocytes; conditions: PHA/hIL-2 stimulated, Myc-epitope-tagged protein over-expression
Method: Immunofluorescence-microscopy was next performed to directly assess whether over-expression of Myc-epitope-tagged WRN or the trans-dominant-negative WRNK577M mutant influence HIV-replication and production of p24^Gag in infected H9HIV-1IIIB lymphocytes. HIV-1-infected H9 lymphocytes were transfected with increasing amounts of CMV-WRN, CMV-WRNK577M, or CβF empty vector (0.12, 0.25 μg) and were stimulated with PHA and hIL-2 as described above. Immunofluorescence-microscopy was performed to determine the influence of WRN or WRNK577M over-expression upon production of HIV-1 p24^Gag and viral replication. Expression of Myc-epitope-tagged WRN and WRNK577M proteins in transfected H9 cells was detected using a rabbit anti-Myc polyclonal antibody (Moser M J et al., Nucleic Acids Res. 28:648-654). Production of intracellular HIV-1 p24^Gag capsid protein was detected using a monoclonal anti-HIV-1 p24^Gag antibody. DAPI-staining was performed to visualize nuclei.

[9] = highest concentration of RSV-HIV-1 Tat
[10] = co-expression with Tat, increasing amounts

Molecule	effect on basal HIV-1 LTR transcriptional activity (in words) [1]	transcription from the HIV-1 LTR^ΔκB-luciferase construct (in words) [2]	transcriptional activation of reporter deleted for κB-responsive elements and TAR-RNA [3]	Tat-activated HIV-1 LTR luciferase activity with or without WRNK577M [5]	intracellular production of p24^Gag capsid protein / HIV-1 replication (immunoblot) [7]	intracellular p24^Gag (immunofluorescence) [8]	also measured
BLM helicase: BLM DNA-helicase expressed from CMV-BLM construct	does not affect basal HIV-1 LTR transcriptional activity	no significant influence	–	–	–	–	effect on Tat-mediated transcriptional activation (in words) ([1]; co-expression with Tat): does not significantly influence Tat-mediated transcriptional activation
Tat: HIV-1 viral trans-activator protein, 81-101 amino acid residues, expressed from RSV construct	–	–	completely abrogated transcriptional activation	14,518,374 RLUs	–	–	Tat-mediated trans-activation from the HIV-1 LTR^ΔκB-luciferase reporter [2]: 6.5 fold; transcriptional activation from the HIV-1 LTR ([4]; Tat alone): approximately 250 fold; Tat trans-activation of HIV-1 LTR [5, 9]: 22 fold; Tat-activated HIV-1 LTR luciferase activity [5, 9]: 14,834,412 RLUs; Tat trans-activation of HIV-1 LTR [6]: 0 fold; Tat-activated HIV-1 LTR luciferase activity [6]: 340 RLUs
WRN helicase: wild-type Werner's syndrome helicase protein, 1432 amino acid residues, expressed from CMV construct	transcriptionally activates the HIV-1 LTR in a dose-dependent manner	to a level approximately one-half that observed for Tat	completely abrogated transcriptional activation	–	significantly higher intracellular production of the p24^Gag major viral capsid protein	increased intracellular p24^Gag	Tat-mediated LTR trans-activation on co-expression of helicase ([1]; co-expression with Tat, increasing amounts of construct): ~60 fold; transcriptional activation from the HIV-1 LTR ([1]; wild-type LTR, factor expressed alone): approx. 10 fold; trans-activation by Tat on co-expression of helicase [4, 10]: approximately 395 fold
WRNK577M	represses basal transcription to levels below base-line	did not significantly promote transcription	–	5,457,345 RLUs	represses production of the p24^Gag major capsid protein	markedly reduced levels of p24^Gag	effect on Tat's transcriptional activation from the HIV-1 LTR (in words) [4, 10]: repressed nearly one-half of Tat's transcriptional activation
B1	–	–	–	–	–	–	effect on WRN-mediated trans-activation from the HIV-1 TAR-RNA ([2]; co-expression with CMV-WRN): inhibited WRN-mediated trans-activation
